Reference: patent publication US12018045B2, “17-beta-hydroxywithanolides and use thereof in treating cancer” (The United States of America, as represented by the …, priority 2018, dated 2024)

Legend:
[1] = system: LNCaP prostate cancer cells; experiment: Growth inhibition of LNCaP prostate cancer cells; type: cell-based; conditions: Homo sapiens
Procedure: (§1) LNCaP and 22Rv1 prostate cancer cells and human fibroblasts HFF cells were treated with compounds 1, 2, 3, and 4.

[2] = system: 22Rv1 prostate cancer cells; experiment: Growth inhibition of 22Rv1 prostate cancer cells; type: cell-based; conditions: Homo sapiens
Procedure: as §1

[3] = system: human fibroblasts HFF cells; experiment: Growth inhibition of human fibroblasts HFF cells; type: cell-based
Procedure: as §1

[4] = system: ACHN, SN12C, Caki-2, TK-10, and UO-31 renal carcinoma cells; experiment: Sensitization of renal carcinoma cell lines to TRAIL apoptosis, comparison with IAP and Bcl-2 antagonists; type: cell-based, human; conditions: 5 renal carcinomas; compared to Birinapant, GDC-0152, LCL-161, ABT-199 and ABT-737
Procedure: ACHN, S[…], Caki-2, TK-10, and UO-31 cells were treated with compound 1, the IAP antagonists Birinapant, GDC-0152, or LCL-161 and the Bcl-2 antagonists ABT-199 and ABT-737 in the presence and absence of TRAIL.

[5] = system: 888, 1383, and Baldwin renal melanoma cells; experiment: Sensitization of 888, 1383 and Baldwin melanoma cells to TRAIL apoptosis; type: cell-based, human; conditions: 888, 1383, Baldwin melanoma cells; compared to Birinapant or ABT-737
Procedure: 888, 1383, and Baldwin renal melanoma cells were treated with compound 1 of compound 3, the Birinapant, or ABT-737 in the presence and absence of TRAIL.

[6] = system: SK-MEL-28 melanoma cells; experiment: Killing of SK-MEL-28 melanoma cells by activated human T cells (crystal violet); type: cell-based; conditions: PCC 500 nM 24 h before T cells
Procedure: 6 well costar plates were precoated with anti-CD3 (1 ug/ml) in PBS overnight at 4° C. Wells were washed with PBS then blocked with RPMI+10% FBS for 30 min before adding anti-CD28 (0.2 ug/ml) and purified T cells.
T cells were isolated from human PBMCs using Pan T cell isolation kit (Miltenyi Biotech) as per manufacturers protocol, added to the costar plates and incubated at 37° C. 24 hours later activated T cells were used as effectors.
SK-MEL-28 cells (200,000) were added to costar 6 plates. After 24 h PCC (500 nM) or control DMSO was added, followed 24 h later by addition of activated T cells at different target to effector ratios. After a further 24 hours plates were washed and adherent melanoma cells were fixed with methanol and stained with crystal violet.
SK-MEL-28 melanoma cells were treated with media, compound 1, or compound 1+α-TNFα and then incubated with the activated human T cells.

[7] = system: cFLIP; experiment: cFLIP levels in LNCaP prostate cancer cells (Western blot); type: cell-based; conditions: 125 nM, 250 nM, or 500 nM
Procedure: LNCaP prostate cancer cells were treated with 125 nM, 250 nM, or 500 nM of compounds 1 or 3.

[8] = system: cFLIP; experiment: cFLIP levels in 22Rv1 prostate cancer cells (Western blot); type: cell-based; conditions: 22Rv1 cells; 125 nM, 250 nM, or 500 nM
Procedure: 22Rv1 prostate cancer cells were treated with 125 nM, 250 nM, or 500 nM of compounds 1 or 3.

[9] = system: cFLIP; experiment: cFLIP reduction in ACHN cells (Western blotting); type: cell-based, human; conditions: ACHN renal carcinoma cells; 125, 250, 500 nM; 24 h; compared with compound 1
Procedure: This example the effect of compounds 1 and 3 on the reduction of cFLIP in ACHN human carcinoma cells as a function of concentration after 24 exposure to the compounds.
ACHN human renal carcinoma cells were treated with 125 nM, 250 nM, and 500 nM of compounds 1 and 3. After 24 h exposure to the compounds, Western blotting was performed to separate FLIPL and FLIPS, and the results shown in FIG. 3.

[10] = system: cFLIP; experiment: cFLIP reduction in M14 melanoma cells (Western blotting); type: cell-based, human; conditions: 0-500 nM, 24 h, compared with compound 1
Procedure: M14 human melanoma cells were treated with 0, 31.25, 62.5, 125, 250, or 500 nM of compounds 1 and 3. After 24 h, Western blotting was performed to separate cFLIPL, cFLIPS, and GAPDH.

[11] = system: B16F10 melanoma; experiment: B16F10 melanoma xenograft model in C57B/6 mice; type: in vivo; conditions: intra-tumor twice a week for 3 weeks; versus vehicle and compound 1
Procedure: C57B/6 mice were injected with 5×10^5 B16F10 melanoma cells s.c. Tumors were allowed to grow 8-10 days and then vehicle, compound 1, or compound 3 were injected intra-tumor twice a week for 3 weeks. Tumor growth was monitored until endpoint.

Structure (SMILES) | IC50 [1] | IC50 [2] | IC50 [3] | sensitization of TRAIL apoptosis [4] | sensitization of TRAIL apoptosis [5] | killing of human melanoma cells by activated T cells [6] | cFLIP levels [7] | cFLIP levels [8] | cFLIP reduction [9] | cFLIP reduction [10] | tumor volume [11]
CC(=O)OC[C@]12CC[C@H]3[C@@H](C[C@H]4O[C@]45CC=CC(=O)[C@]35C)[C@]1(O)CC[C@@]2(O)[C@@](C)(O)[C@H]1CC(C)=C(C)C(=O)O1 [Compound 1, Physachenolide C] | 37 ± 2 nM | 48 ± 2 nM | > 2000 nM | superior results | superior results | enhanced the killing | reduction of cFLIP levels | reduction of cFLIP levels | – | – | –
COc1ccc(C(=O)OC[C@]23CC[C@H]4[C@@H](C[C@H]5O[C@]56CC=CC(=O)[C@]46C)[C@]2(O)CC[C@@]3(O)[C@@](C)(O)[C@H]2CC(C)=C(C)C(=O)O2)cc1 [Compound 2] | 18 ± 2 nM | 16 ± 4 nM | 938 ± 10 nM | – | – | – | – | – | – | – | –
CC1=C(C)C(=O)O[C@@H]([C@](C)(O)[C@]2(O)CC[C@@]3(O)[C@@H]4C[C@H]5O[C@]56CC=CC(=O)[C@]6(C)[C@H]4CC[C@]23COC(=O)c2ccc(C)o2)C1 [Compound 3, withaperuvin E] | 14 ± 1 nM | 10 ± 2 nM | 892 ± 119 nM | – | superior results | – | reduction of cFLIP levels | reduction of cFLIP levels | elevated activity over compound 1 | elevated activity over compound 1 | lowest
CC1=C(C)C(=O)O[C@@H]([C@](C)(O)[C@]2(O)CC[C@@]3(O)[C@@H]4C[C@H]5O[C@]56CC=CC(=O)[C@]6(C)[C@H]4CC[C@]23COC(=O)c2ccc(C)nc2)C1 [Compound 4] | 17 ± 8 nM | 17 ± 1 nM | 945 ± 92 nM | – | – | – | – | – | – | – | –
